The results in this text go back to ChEMBL document CHEMBL1201862, “PubChem BioAssay data set” (2004).

Holding throughout (test): NCI tumour cell line growth inhibition, 48 h
In assay [1] the test system is M14.
Assay [2] deals with KM12.
Assay [3] deals with CAKI-1.
For assay [4], the system named is UACC-257.
Assay [5] relates to HL-60.
Assay [6] concerns SK-OV-3.
Assay [7] relates to NCI-H23.
In assay [8] the test system is SK-MEL-5.
Assay [9] concerns SF-295.
For assay [10], the system named is HCT-15.
For assay [11], the system named is SNB-75.
For assay [12], the system named is T47D.
The test system of assay [13] is SF-268.
Assay [14] deals with IGROV-1.
Assay [15] concerns A549.
The subject of assay [16] is NCI/ADR-RES.
The subject of assay [17] is HCT-116.
Assay [18] deals with Malme-3M.
The subject of assay [19] is RPMI-8226.

Each structure is given as a SMILES string.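 Step 1: Grow cells in 96-well plates. Step 2: Expose to compound for 48 hours at 5 concentrations. Step 3: Interpolate endpoints linearly; if unreached, use highest concentration. Abbreviation: GI50, concentration required for 50% inhibition of growth.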 Active and inactive are the calls of the source. No stated cut-off is given here; in the data, active = GI50 up to about 1.1 µM and inactive = higher.

Consider `COC(=O)[C@H]1COC(=O)N1`, for which the GI50 in [1] is > 100 µM (inactive); in assay [2] it was > 100 µM (inactive); in [3] it was > 100 µM (inactive); in assay [4], > 100 µM (inactive); in assay [5], 89.7 µM (inactive); in [6], > 100 µM (inactive). The GI50 in [7] is > 100 µM (inactive); in assay [8] it was > 100 µM (inactive); in assay [9], > 100 µM (inactive); in assay [10], over 100 µM; in [11], > 100 µM (inactive); in assay [12] it was > 100 µM (inactive). Besides, the GI50 in assay [13], in assay [14], in assay [15], in assay [16], in assay [17] and in assay [18] was > 100 µM (inactive) throughout.
Take `N/C(=N\O)N/N=C/c1cc(I)cc(I)c1O`: the GI50 in assay [1] was 19 µM (inactive); in assay [2] it was > 100 µM (inactive); in assay [3] it was 57.1 µM (inactive); in assay [4], 52.2 µM (inactive); in [5] it was 13.2 µM (inactive); in assay [6], 75.5 µM (inactive). Further, the GI50 in assay [7] was 28 µM (inactive); in assay [8] it was 30.6 µM (inactive); in assay [9] it was 50.4 µM (inactive); in assay [10], 5.37 µM; in assay [12], 48.1 µM (inactive); in assay [13], 24.1 µM (inactive). The GI50 was 30.8 µM (inactive) in assay [14]; 49.3 µM (inactive) in [15]; 2.8 µM (inactive) in assay [16]; 23.7 µM (inactive) in assay [17]; 19.3 µM (inactive) in [18].
Turning to `O=C1Oc2ccccc2C(=O)/C1=C/NC(=S)NCc1ccccc1`, the GI50 was 75 µM (inactive) in assay [1]; 51.6 µM (inactive) in [2]; 21 µM (inactive) in assay [3]; 90.6 µM (inactive) in [4]; 42.7 µM (inactive) in assay [5]; > 100 µM (inactive) in [6]. In addition, the GI50 is 36.2 µM (inactive) in assay [7]; 69.5 µM (inactive) in [8]; 55.6 µM (inactive) in [9]; 49.5 µM in [10]; 16.9 µM (inactive) in assay [11]; 81.7 µM (inactive) in assay [12]. Moreover, the GI50 in [14] was 38.8 µM (inactive); in assay [15], 65.2 µM (inactive); in assay [16], 66.1 µM (inactive); in assay [17] it was 53.8 µM (inactive).
Consider `CCOC(=O)/C(C(=O)Nc1ccc(F)cc1)=C(/N)N1CCCC1`, for which the GI50 in [1], in assay [2], in assay [3], in [4], in assay [5] and in [6] was > 100 µM (inactive) in each case. Further, the GI50 in assay [19] was > 100 µM (inactive); in assay [7], < 0.01 µM (active); in assay [9], > 100 µM (inactive); in [10] it was under 0.01 µM; in assay [11] it was > 100 µM (inactive); in assay [12], > 100 µM (inactive). Besides, the GI50 in assay [13], in [14], in [15], in assay [16], in [17] and in assay [18] was > 100 µM (inactive) in each case.
For the molecule `CC(C)=CCC/C(C)=C/Cc1cc(/C=C/c2cc(O)c(CC=C(C)C)c(O)c2)cc(O)c1O` [MAPPAIN], the GI50 in assay [1] was 4.26 µM (inactive); in [2] it was 4.29 µM (inactive); in assay [3], 5.42 µM (inactive); in assay [4], 1.67 µM (inactive); in assay [5] it was 0.502 µM (active); in assay [6] it was 8.87 µM (inactive). Moreover, the GI50 in [19] was 0.506 µM (active); in assay [7] it was 3.31 µM (inactive); in assay [8], 2.12 µM (inactive); in assay [9], 4.65 µM (inactive); in assay [10], 3.05 µM; in assay [11], 2.58 µM (inactive). For the same molecule, the GI50 in assay [12] is 1.84 µM (inactive); in assay [13] it was 2.64 µM (inactive); in assay [14], 1.76 µM (inactive); in [15], 4.72 µM (inactive); in assay [16], 3.15 µM (inactive); in assay [17], 3.37 µM (inactive). For the same molecule, the GI50 in assay [18] is 6.38 µM (inactive).
For `CC(C)C1CCC(=O)CC1CCCCC1CC(=O)CC1O[Si](C)(C)C(C)(C)C` (stereo not given), the GI50 in assay [1] was 6.1 µM (inactive); in [2], 2.76 µM (inactive); in assay [3], 5.58 µM (inactive); in [4] it was 6.4 µM (inactive); in assay [6] it was 11.9 µM (inactive); in [19], 1.95 µM (inactive). The GI50 in assay [7] was 15.5 µM (inactive); in assay [8] it was 3.05 µM (inactive); in assay [9] it was 9.62 µM (inactive); in [10] it was 3.44 µM; in [11], 13.2 µM (inactive); in assay [12], 14.2 µM (inactive). The GI50 is 2.54 µM (inactive) in [13]; 2.84 µM (inactive) in assay [14]; 6.03 µM (inactive) in assay [15]; 4.25 µM (inactive) in assay [16]; 3.18 µM (inactive) in [17]; 6.76 µM (inactive) in assay [18].
Turning to `Cc1nc(O)nc(N(CCO)/N=C/c2ccc(Cl)cc2)c1C(=O)Nc1ccc(Cl)cc1`, the GI50 was 87.3 µM (inactive) in assay [1]; > 100 µM (inactive) in [2]; > 100 µM (inactive) in [3]; > 100 µM (inactive) in [4]; > 100 µM (inactive) in assay [5]; 58.2 µM (inactive) in [6]. The GI50 was > 100 µM (inactive) in [7]; > 100 µM (inactive) in assay [8]; > 100 µM (inactive) in assay [9]; over 100 µM in assay [10]; 55.2 µM (inactive) in [11]; 98.4 µM (inactive) in assay [12]. Besides, the GI50 was 89.7 µM (inactive) in assay [13]; > 100 µM (inactive) in [14]; > 100 µM (inactive) in [15]; > 100 µM (inactive) in [16]; 57.8 µM (inactive) in assay [17]; 26.1 µM (inactive) in assay [18].
For `O=c1c(C(c2cnc3ccccc3c2)c2c(O)oc3ccccc3c2=O)c(O)oc2ccccc12`, the GI50 in assay [2] was 37.4 µM (inactive); in assay [3], 41.3 µM (inactive); in assay [4], 37.3 µM (inactive); in [5], 37.8 µM (inactive); in [19] it was 29 µM (inactive); in assay [7], 41.7 µM (inactive). Besides, the GI50 in assay [8] is 57.8 µM (inactive); in [10], 44.6 µM; in [11], 13.5 µM (inactive); in assay [12], > 100 µM (inactive); in assay [13], 23.8 µM (inactive); in assay [14] it was > 100 µM (inactive). In addition, the GI50 in assay [16] is > 100 µM (inactive); in [17] it was 30.3 µM (inactive); in assay [18] it was 35.2 µM (inactive).
On to `[BH3-][P+]1(CC[P@@+]([BH3-])(c2ccccc2)c2ccccc2OC)[C@@H](C)[C@@H](O)[C@H](O)[C@@H]1C` (stereo not given in full), for which the GI50 in assay [1] is 16.7 µM (inactive); in [2], 15.8 µM (inactive); in [3], 15.6 µM (inactive); in assay [4], 4.19 µM (inactive); in assay [5], 23.2 µM (inactive); in [6] it was 22.8 µM (inactive). Moreover, the GI50 in assay [19] was 23.4 µM (inactive); in [7], 16 µM (inactive); in assay [8], 15.7 µM (inactive); in [9] it was 15.8 µM (inactive); in assay [10], 17.5 µM; in [11], 14.8 µM (inactive). The GI50 is 15.9 µM (inactive) in [12]; 17.2 µM (inactive) in [13]; 17.3 µM (inactive) in assay [14]; 14.1 µM (inactive) in [15]; 16.5 µM (inactive) in assay [16]; 17.7 µM (inactive) in assay [17]. The GI50 in assay [18] is 11.2 µM (inactive).
For `CN(C)CC1CCC/C(=C\c2ccc(N(C)C)cc2)C1=O` (stereo not given), the GI50 in [1] is 3.55 µM (inactive); in [2] it was 1.44 µM (inactive); in [3], 1.8 µM (inactive); in assay [4], 13.5 µM (inactive); in assay [5] it was > 100 µM (inactive); in [6], 17.8 µM (inactive). Further, the GI50 in [19] was > 100 µM (inactive); in assay [7], 15.1 µM (inactive); in assay [8], 17.6 µM (inactive); in assay [9], 18.2 µM (inactive); in [10] it was 4.86 µM; in [11], 17 µM (inactive). Besides, the GI50 was 2.25 µM (inactive) in assay [12]; 1.78 µM (inactive) in assay [13]; 3.73 µM (inactive) in assay [14]; 17.9 µM (inactive) in [15]; 25.9 µM (inactive) in [16]; 3.15 µM (inactive) in [17]. For the same molecule, the GI50 in assay [18] is 12.1 µM (inactive).
`Fc1sc2c(c1F)C1CCC2C1` (stereo not given): the GI50 in assay [1] is > 100 µM (inactive); in [2], > 100 µM (inactive); in assay [3], > 100 µM (inactive); in [4], 40.9 µM (inactive); in assay [6], > 100 µM (inactive); in assay [19] it was 31.9 µM (inactive). Moreover, the GI50 in assay [7] was 58.3 µM (inactive); in assay [8], > 100 µM (inactive); in assay [9], > 100 µM (inactive); in assay [10] it was 85.9 µM; in assay [11], > 100 µM (inactive); in assay [12], 88.3 µM (inactive). Also, the GI50 in [13] was > 100 µM (inactive); in assay [14], 51.2 µM (inactive); in assay [15] it was > 100 µM (inactive); in [16], 47.1 µM (inactive); in [17] it was 48.8 µM (inactive); in assay [18], > 100 µM (inactive).
